Results taken from patent US7528169B2, “Substance having antitumor/anti-inflammatory activity” (Riken, priority 2001, dated 2009).

Tests used:
NF-κB = assay: Inhibitory effect on NF-κB activation by TPA (luciferase reporter, pGL3-NF1, in COS-7 cells); format: cell-based; details: TPA 50 ng/ml, 10 to 100 μg/ml, 24 hours
Protocol: COS-7 cells maintained in a DMEM medium (containing 5% bovine fetal serum) were transfected with a plasmid (pGL3-NF1) containing 5xNF-κB binding sequence (5′-[…]-3′) (SEQ ID NO: 1) located upstream of the luciferase gene. The cells were added with TPA (50 ng/ml) and RKB-3564S and RKB-3564SAC in a series of dilution, and cultured for 24 hours, and then the activity of produced luciferase was measured to calculate the inhibitory effect on NF-κB activation by TPA.

[1] = system: MCF-7 cells derived from human mammary cancer; assay: Inhibitory effect on proliferation of tumor cells (MTT survival rate) under 1% or 20% oxygen; format: cell-based; details: 10 to 100 μg/ml, 48 hours, 1% oxygen vs 20% oxygen
Protocol: MCF-7 cells derived from human mammary cancer were cultured in a RPMI medium (containing 5% bovine fetal serum). The cells were added with RKB-3564S and RKB-3564SAC in a series of dilution, cultured under the condition of 1% oxygen concentration or 20% oxygen concentration for 48 hours, then added with MTT reagent [3-(4,5-dimethyl-thiazol-2-yl)-2,5-diphenyltetrazolium bromide], and further cultured for 2 to 4 hours, and then the absorption at 570 nm was measured to calculate the survival rate.

[2] = Solubility (physico-chemical properties); format: physicochemical
Protocol: The physico-chemical properties of […] are shown below. • Appearance: colorless powdery crystals • Melting point: 71.5-72° C. (dec.) • Molecular formula: C10H12O2 • High-resolution mass spectrum (HR-RABMS): (M+H)^+Found (m/z): 165.0868 Calcd. […] Insoluble in n-hexane.

Row | Solubility in methanol or dimethyl sulfoxide ([2]; methanol or dimethyl sulfoxide) | Solubility in n-hexane ([2]; n-hexane) | SMILES | inhibition of transcription activation by NF-κB (NF-κB) | inhibition of cell proliferation under 1% oxygen compared to 20% oxygen [1]
1 | – | – | C/C=C/c1cccc(OC(C)=O)c1COC(C)=O [RKB-3564SAC] | inhibited transcription activation by NF-κB | significantly inhibited cell proliferation
2 | easily soluble | Insoluble | C/C=C/c1cccc(O)c1CO [RKB-3564S] | inhibited transcription activation by NF-κB | significantly inhibited cell proliferation
